Measurements: patent US8026229B2, “Antitumor-active 2-alkoxyestradiol sulfamates” (Sterix Limited, priority 2001, dated 2011)

What was measured:
[1] = test system: tubulin; details: literature, J. Med. Chem. 1997, 40, 2323-2334; cited from earlier work
[2] = biological target: T1, microtubular protein (tubulin) from porcine brains (Sus scrofa, UniProt P02550+P02554); experiment: Inhibition of tubulin polymerization in vitro (turbidimetry at 340 nm); format: biochemical; details: microtubular protein 1 mg/ml, 0.25 mM GTP, 37° C.
T1 construct: Microtubular protein was purified by the method of Shelanski et al; from tissue; host or cells: porcine brain
Procedure: The inventive compounds were tested in various models. The inventive compounds of general formula I are remarkable in that they inhibit tubulin polymerization more than does 2-methoxyestradiol. The effect on tubulin polymerization was tested in vitro in the following way:
Microtubular protein was purified by the method of Shelanski et al. (Shelanski et al., Proc. Natl. Acad. Sci. USA 1973, 70, 765-8) via cyclic assembly/disassembly from porcine brains. The buffer system used had the following composition: 20 mM PIPES (1,4-piperazinediethanesulfonic acid, pKa 6.8), 80 mM NaCl, 0.5 mM MgCl2, 1 mM EGTA (ethylene glycol bis(2-aminoethyl)tetraacetic acid). Protein concentrations of 1 mg/ml (approx. […] tubulin) were used to test the active substance. The protein was determined by the method of Lowry (Lowry et al., J. Biol. Chem. 1951, 193, 265-75) using bovine serum albumin as standard. The assembly of the microtubuli was carried out in the presence of 0.25 mM GTP and heating of the samples to 37° C.
Microtubulus formation was checked using turbidimetry at a wavelength of 340 nm.
The active substances were tested by adding them at the beginning of the assembly or at the state of equilibrium. Their effectiveness is characterized by deviations in the turbidity curves from those of the control. To check the effect and evaluate the turbidity values measured, a transmission electron microscopic examination (CEM 902 A, Zeiss, Oberkochen, Germany) of the assemblate was always carried out after negative staining with 1% aqueous uranyl acetate.

T1 sequence (P02554 whole entry): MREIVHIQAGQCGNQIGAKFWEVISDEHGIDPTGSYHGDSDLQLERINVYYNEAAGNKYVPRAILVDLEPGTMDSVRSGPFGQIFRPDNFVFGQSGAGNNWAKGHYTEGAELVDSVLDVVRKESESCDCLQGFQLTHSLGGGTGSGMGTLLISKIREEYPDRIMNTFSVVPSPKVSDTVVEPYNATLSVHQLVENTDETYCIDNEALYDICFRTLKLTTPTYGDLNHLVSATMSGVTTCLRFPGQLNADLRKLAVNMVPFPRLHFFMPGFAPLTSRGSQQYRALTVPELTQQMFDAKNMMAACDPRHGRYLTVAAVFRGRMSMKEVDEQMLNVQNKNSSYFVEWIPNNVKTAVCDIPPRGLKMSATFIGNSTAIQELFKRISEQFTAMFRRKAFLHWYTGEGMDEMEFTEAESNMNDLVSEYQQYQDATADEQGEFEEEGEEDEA
T1 sequence (P02550 whole entry): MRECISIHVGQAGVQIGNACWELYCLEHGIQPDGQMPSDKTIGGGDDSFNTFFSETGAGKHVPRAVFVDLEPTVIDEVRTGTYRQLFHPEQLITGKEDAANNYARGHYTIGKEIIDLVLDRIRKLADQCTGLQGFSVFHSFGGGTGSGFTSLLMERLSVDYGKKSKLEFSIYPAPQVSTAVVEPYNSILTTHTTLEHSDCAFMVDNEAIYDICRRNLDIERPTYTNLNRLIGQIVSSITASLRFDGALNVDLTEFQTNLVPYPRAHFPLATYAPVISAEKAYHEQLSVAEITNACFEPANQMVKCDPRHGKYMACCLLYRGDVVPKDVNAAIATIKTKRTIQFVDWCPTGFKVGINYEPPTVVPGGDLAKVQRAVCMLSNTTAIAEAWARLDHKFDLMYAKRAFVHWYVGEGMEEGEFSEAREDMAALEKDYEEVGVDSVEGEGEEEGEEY

Row | SMILES | Activity in inhibition of tubulin polymerization compared with 2-methoxyestradiol [1] | IC50 [2]
1 | CCOc1cc2c(cc1O)CC[C@@H]1[C@@H]2CC[C@]2(C)[C@@H](O)CC[C@@H]12 [2-ethoxyestradiol] | higher than that of 2-methoxyestradiol | 
2 | COc1cc2c(cc1OS(N)(=O)=O)CC[C@@H]1[C@@H]2CC[C@]2(C)[C@@H](O)CC[C@@H]12 [Example 1, 2-Methoxy-17β-hydroxy-estra-1,3,5(10)-trien-3-yl sulfamate] |  | 1000 nM
3 | COc1cc2c(cc1OS(N)(=O)=O)CCC1C2CC[C@]2(C)C(=O)CCC12 (stereo partly shown) [2-Methoxyestrone-3-sulfamate] |  | 1600 nM
4 | COc1cc2c(cc1O)CCC1C2CC[C@@]2(C)C1CC[C@@H]2O (stereo partly shown) [2-Methoxyestradiol] |  | > 3000 nM
